Columns and labels:
[1] = system: hTel23 (DNA, G4) TAGGGTTAGGGTTAGGGTTAGGG; assay: CD melting; conditions: 80 mM KCl, 10 mM KH2PO4 (90 mM K+); pH 7.3; 5 equiv. complex (25 µM), 5 µM DNA, 0.5 °C/min
[2] = system: hTel23 (DNA, G4) TAGGGTTAGGGTTAGGGTTAGGG; assay: CD titration, Hill fit; conditions: 80 mM KCl, 10 mM KH2PO4 (90 mM K+), pH 7.3, 5 °C, up to 0.9% DMSO, apparent

| Compound | ΔTM [1] | Kd ([2]; 290 nm (hybrid form)) [µM] | Kd ([2]; 272 nm (parallel form), 290 nm (hybrid) gives 17) [µM] |
| --- | --- | --- | --- |
| CCN1[C]N(CC)C(c2ccc(OC)cc2)=C1c1ccc(OC)cc1.CCN1[C]N(CC)C(c2ccc(OC)cc2)=C1c1ccc(OC)cc1.[Au+] | −2 °C | – | – |
| CC(=O)NCCN1[C]N2C=CC=CC2=C1.CC(=O)NCCN1[C]N2C=CC=CC2=C1.[Au+] | −13 °C | 9.7 | – |
| [Au+].[C]1C2=C(CCCC2)N2CCCCN12.[C]1C2=C(CCCC2)N2CCCCN12 | −4 °C | – | 5.1 |
| [Au+].[C]1N(Cc2ccccn2)C=CN1c1c2ccccc2nc2ccccc12.[C]1N(Cc2ccccn2)C=CN1c1c2ccccc2nc2ccccc12 | +1 °C | – | – |

Source: PMC11597854 (2024)
